From patent publication US11986557B2, “Stealth nanoparticles” (HOWARD UNIVERSITY, priority 2018, dated 2024)

Tests used:
MCF7 = experiment: In vitro cytotoxicity studies, MCF7; assay type: cell-based, human
Procedure: (§1) In vitro cytotoxicity studies were conducted to determine the cytotoxic effect of paclitaxel (as a free drug/not in nanoparticle), 17AAG (free drug), paclitaxel+17AAG combination (as free drugs), and paclitaxel+17AAG combination loaded nanoparticles on two human breast cancer cell lines, SKBR3 and MCF7.
(§2) In preparation of the drug combination treatment, one part of each drug was halved and combined, such that each drug in the combination treatment contained half the concentration of their single drug counterparts. This means that the paclitaxel concentration in the combination treatment is 50% of the paclitaxel (single drug) treatment. In other words, the ratio of the concentration in the single drug to its respective concentration in the combination is 2:1. Also, the drug concentration ratio within the combination (paclitaxel: 17AAG) was approximately 1:1.
(§3) For 5 days of assaying, three plates were treated for each day. The first was treated with paclitaxel solution (single drug) and paclitaxel/17AAG combination solution and second with 17AAG solution (single drug) and paclitaxel/17AAG combination solution. The last plate was treated with the combination drug loaded nanoparticle solution and paclitaxel/17AAG combination solution (free drug).

SKBR3 = experiment: In vitro cytotoxicity studies, SKBR3; assay type: cell-based, human
Procedure: as §1, §2, §3

[1] = pH 5.0 versus pH 7.4; cited from earlier work

SMILES	Cytotoxic effect at low concentrations (MCF7)	Cytotoxic effect at low concentrations (SKBR3)	Hydrolysis rate [1]
C=CCNC1=C2C[C@@H](C)C[C@H](OC)[C@H](O)[C@@H](C)/C=C(\C)[C@H](OC(N)=O)[C@@H](OC)/C=C\C=C(/C)C(=O)NC(=CC1=O)C2=O [Formulation 17AAG, 17 allylamino, 17 demethoxygeldanamycin]	did not show any significant cytotoxic effect	did not show any significant cytotoxic effect	
C=C(C)C(=O)OCCOC(OCCOC(=O)C(=C)C)c1ccc(OC)cc1OC [di (2-methacryloyloxyethoxy)-[2,4-dimethoxyphenyl]methane]			hydrolyzes much faster at pH 5.0 than at pH 7.4
